Experimental data reported in paper PMC12990037, “Discovery of Two Structurally Distinct Classes of Inhibitors Targeting the Nuclease MUS81 and Enhancing Efficacy of Chemotherapy in Cancer Cells” (Journal of Medicinal Chemistry, 2026).

Target: T1, truncated MUS81 binding to immobilized DNA substrate (Homo sapiens, UniProt Q96NY9)
T1 construct: made in house
T1 sequence (Q96NY9 246-551): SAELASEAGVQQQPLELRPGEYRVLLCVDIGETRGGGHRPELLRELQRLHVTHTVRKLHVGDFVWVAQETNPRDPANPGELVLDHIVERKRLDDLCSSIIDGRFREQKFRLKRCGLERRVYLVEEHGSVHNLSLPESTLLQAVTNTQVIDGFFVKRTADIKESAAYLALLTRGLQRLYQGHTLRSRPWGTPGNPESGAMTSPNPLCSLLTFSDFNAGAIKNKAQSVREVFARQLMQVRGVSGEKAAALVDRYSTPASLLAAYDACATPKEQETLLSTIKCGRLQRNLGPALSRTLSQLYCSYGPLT
T1 sequence (Q96AY2 178-570 partner limits assumed): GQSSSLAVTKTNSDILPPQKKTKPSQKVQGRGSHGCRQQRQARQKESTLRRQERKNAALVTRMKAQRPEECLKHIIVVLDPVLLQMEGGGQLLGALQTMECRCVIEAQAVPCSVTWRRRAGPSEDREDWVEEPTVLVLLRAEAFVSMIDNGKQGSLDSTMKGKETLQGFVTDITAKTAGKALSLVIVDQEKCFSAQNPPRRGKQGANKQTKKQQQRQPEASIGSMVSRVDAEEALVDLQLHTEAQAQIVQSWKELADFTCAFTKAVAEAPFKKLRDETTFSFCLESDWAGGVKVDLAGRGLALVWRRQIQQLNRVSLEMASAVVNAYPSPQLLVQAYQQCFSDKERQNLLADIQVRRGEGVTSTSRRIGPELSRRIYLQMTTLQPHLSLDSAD
Experiment: Biolayer interferometry (BLI)
Conditions: truncated MUS81 200 nM
Experimental: (A,B) Purified MUS81–EME1 (160 nM) was incubated with increasing concentrations of MU262, MU876, or their respective control analogues, followed by the addition of 3 nM fluorescently labeled 3′ flap DNA substrate. MgCl2 was omitted from the reaction buffer to prevent substrate cleavage. The reaction products were resolved on a native PAGE gel. The lower band represents a free DNA substrate, while the upper smear corresponds to the MUS81–DNA complex. n = 3. (C,D) A 3′ flap cleavage-resistant DNA substrate was immobilized on a streptavidin-coated (SAX) sensor and incubated with truncated MUS81 (200 nM) alone, or with MUS81 premixed with DMSO, MU876, MU262, or their respective control analogues. The real-time binding kinetics were measured as a change in optical thickness over time. Representative plots shown from two independent experiments. (E) Representative images of a DMSO-treated cell within 100 s after microirradiation. GFP-MUS81 U2OS cells were preincubated with DMSO or MU876 at 1 and 5 μM final concentration for 2 h. Localized DNA damage was induced using a 355 nm laser microirradiation at specific sites in individual nuclei. […] (F) The integrated intensity of a GFP-MUS81 signal accumulation ± SE from (E). n = 3.

Compound: CCc1nn2c(O)c(-c3nc4ccccc4[nH]3)nnc2c1-c1ccc(F)cc1 [Compound 18, 3-(1H-Benzo[d]imidazole-2-yl)-7-ethyl-8-(4-fluorophenyl)pyrazolo[5,1-c][1,2,4]triazin-4-ol]
- effect on MUS81–DNA binding (BLI): only negligible effect
